{"source": "ChEMBL document CHEMBL6087392", "about": "“Discovery of ZG-2305, an Orally Bioavailable Factor Inhibiting HIF Inhibitor for the Treatment of Obesity and Fatty Liver Disease” (J Med Chem, 2025)", "key": {"Cytochrome P450 1A2": {"biological_target": "T1, Cytochrome P450 1A2 (Homo sapiens, UniProt P05177)", "T1 sequence (P05177 whole entry)": "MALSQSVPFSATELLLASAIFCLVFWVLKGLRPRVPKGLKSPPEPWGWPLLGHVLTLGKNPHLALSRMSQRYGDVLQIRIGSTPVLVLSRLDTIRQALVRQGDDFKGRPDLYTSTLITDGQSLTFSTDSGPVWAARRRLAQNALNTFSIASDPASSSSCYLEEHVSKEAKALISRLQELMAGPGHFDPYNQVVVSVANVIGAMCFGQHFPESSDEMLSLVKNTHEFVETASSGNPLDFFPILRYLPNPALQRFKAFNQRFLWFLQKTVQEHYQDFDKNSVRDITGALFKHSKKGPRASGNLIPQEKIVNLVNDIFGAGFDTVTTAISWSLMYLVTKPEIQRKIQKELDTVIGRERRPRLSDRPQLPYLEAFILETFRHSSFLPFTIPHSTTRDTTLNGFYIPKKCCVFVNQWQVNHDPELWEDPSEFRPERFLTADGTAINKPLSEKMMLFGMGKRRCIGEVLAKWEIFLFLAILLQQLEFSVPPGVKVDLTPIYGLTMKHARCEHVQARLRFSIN", "assay": "Inhibition of CYP1A2 in human liver microsomes using phenacetin as substrate preincubated for 5 mins followed by NADPH addition and measured after 10 mins by LC-MS/MS analysis", "format": "ADME, Microsome"}, "Cytochrome P450 2C9": {"biological_target": "Cytochrome P450 2C9 (Homo sapiens, UniProt P11712)", "sequence (P11712 whole entry)": "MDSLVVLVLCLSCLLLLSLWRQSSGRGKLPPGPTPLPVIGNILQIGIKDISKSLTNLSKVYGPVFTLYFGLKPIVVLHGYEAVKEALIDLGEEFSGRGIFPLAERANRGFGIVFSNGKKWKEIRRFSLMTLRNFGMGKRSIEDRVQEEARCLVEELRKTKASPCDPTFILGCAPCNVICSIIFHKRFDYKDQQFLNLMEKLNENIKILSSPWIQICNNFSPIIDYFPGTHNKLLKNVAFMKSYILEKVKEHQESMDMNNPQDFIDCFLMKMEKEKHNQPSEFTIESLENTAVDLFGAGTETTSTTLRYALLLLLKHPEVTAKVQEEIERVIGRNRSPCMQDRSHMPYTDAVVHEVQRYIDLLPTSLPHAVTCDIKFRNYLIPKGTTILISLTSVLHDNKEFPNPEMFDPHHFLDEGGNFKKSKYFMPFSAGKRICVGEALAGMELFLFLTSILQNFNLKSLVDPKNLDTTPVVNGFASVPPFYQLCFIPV", "assay": "Inhibition of CYP2C9 in human liver microsomes using diclofenac as substrate preincubated for 5 mins followed by NADPH addition and measured after 10 mins by LC-MS/MS analysis", "format": "ADME, Microsome"}, "Cytochrome P450 2C19": {"biological_target": "Cytochrome P450 2C19 (Homo sapiens, UniProt P33261)", "sequence (P33261 whole entry)": "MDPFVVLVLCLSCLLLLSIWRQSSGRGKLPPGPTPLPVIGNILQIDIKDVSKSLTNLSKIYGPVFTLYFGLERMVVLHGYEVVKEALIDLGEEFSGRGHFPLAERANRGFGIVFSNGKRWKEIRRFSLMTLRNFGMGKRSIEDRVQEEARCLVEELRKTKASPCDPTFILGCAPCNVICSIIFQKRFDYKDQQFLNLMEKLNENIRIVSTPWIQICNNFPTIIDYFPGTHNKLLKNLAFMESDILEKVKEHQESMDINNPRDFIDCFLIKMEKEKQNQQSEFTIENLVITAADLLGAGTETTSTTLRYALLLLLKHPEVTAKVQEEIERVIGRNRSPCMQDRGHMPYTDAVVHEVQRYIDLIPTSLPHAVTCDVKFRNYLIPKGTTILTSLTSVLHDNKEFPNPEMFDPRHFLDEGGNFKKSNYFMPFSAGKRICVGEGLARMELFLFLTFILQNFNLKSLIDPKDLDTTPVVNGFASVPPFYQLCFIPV", "assay": "Inhibition of CYP2C19 in human liver microsomes using S-mephenytoin as substrate preincubated for 5 mins followed by NADPH addition and measured after 45 mins by LC-MS/MS analysis", "format": "ADME, Microsome"}, "Cytochrome P450 2D6": {"biological_target": "Cytochrome P450 2D6 (Homo sapiens, UniProt P10635)", "sequence (P10635 whole entry)": "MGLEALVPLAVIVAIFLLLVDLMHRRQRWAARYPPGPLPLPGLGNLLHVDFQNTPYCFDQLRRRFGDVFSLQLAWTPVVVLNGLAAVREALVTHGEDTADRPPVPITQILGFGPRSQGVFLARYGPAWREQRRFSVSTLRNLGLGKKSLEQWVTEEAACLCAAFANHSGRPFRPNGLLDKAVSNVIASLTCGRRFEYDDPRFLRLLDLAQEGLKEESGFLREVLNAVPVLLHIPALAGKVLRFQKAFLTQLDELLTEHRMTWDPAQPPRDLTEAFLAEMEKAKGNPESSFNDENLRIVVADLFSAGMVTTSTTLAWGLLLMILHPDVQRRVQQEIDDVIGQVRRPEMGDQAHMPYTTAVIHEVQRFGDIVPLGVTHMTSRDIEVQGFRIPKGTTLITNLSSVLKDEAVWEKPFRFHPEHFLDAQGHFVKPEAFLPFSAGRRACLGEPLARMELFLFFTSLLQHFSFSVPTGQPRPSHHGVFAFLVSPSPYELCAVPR", "assay": "Inhibition of CYP2D6 in human liver microsomes using bufuralol as substrate preincubated for 5 mins followed by NADPH addition and measured after 10 mins by LC-MS/MS analysis", "format": "ADME, Microsome"}, "Cytochrome P450 3A4": {"biological_target": "Cytochrome P450 3A4 (Homo sapiens, UniProt P08684)", "sequence (P08684 whole entry)": "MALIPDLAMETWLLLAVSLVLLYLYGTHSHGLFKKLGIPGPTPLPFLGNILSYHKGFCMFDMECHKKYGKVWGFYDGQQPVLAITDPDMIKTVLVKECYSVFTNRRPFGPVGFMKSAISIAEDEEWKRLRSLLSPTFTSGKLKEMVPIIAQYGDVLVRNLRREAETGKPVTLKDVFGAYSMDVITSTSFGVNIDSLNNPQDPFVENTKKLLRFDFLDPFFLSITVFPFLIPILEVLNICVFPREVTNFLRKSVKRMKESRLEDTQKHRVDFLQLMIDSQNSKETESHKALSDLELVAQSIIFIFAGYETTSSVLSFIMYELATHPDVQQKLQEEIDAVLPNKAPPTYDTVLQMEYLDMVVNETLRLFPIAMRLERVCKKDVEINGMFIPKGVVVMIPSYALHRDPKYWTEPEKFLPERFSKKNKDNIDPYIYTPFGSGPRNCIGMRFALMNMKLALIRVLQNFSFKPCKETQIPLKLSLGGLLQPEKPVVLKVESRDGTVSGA", "assay": "Inhibition of CYP3A4 in human liver microsomes using testosterone as substrate preincubated for 5 mins followed by NADPH addition and measured after 5 mins by LC-MS/MS analysis", "format": "ADME, Microsome"}, "[1]": {"biological_target": "Voltage-gated inwardly rectifying potassium channel KCNH2 (Homo sapiens, UniProt Q12809)", "sequence (Q12809 whole entry)": "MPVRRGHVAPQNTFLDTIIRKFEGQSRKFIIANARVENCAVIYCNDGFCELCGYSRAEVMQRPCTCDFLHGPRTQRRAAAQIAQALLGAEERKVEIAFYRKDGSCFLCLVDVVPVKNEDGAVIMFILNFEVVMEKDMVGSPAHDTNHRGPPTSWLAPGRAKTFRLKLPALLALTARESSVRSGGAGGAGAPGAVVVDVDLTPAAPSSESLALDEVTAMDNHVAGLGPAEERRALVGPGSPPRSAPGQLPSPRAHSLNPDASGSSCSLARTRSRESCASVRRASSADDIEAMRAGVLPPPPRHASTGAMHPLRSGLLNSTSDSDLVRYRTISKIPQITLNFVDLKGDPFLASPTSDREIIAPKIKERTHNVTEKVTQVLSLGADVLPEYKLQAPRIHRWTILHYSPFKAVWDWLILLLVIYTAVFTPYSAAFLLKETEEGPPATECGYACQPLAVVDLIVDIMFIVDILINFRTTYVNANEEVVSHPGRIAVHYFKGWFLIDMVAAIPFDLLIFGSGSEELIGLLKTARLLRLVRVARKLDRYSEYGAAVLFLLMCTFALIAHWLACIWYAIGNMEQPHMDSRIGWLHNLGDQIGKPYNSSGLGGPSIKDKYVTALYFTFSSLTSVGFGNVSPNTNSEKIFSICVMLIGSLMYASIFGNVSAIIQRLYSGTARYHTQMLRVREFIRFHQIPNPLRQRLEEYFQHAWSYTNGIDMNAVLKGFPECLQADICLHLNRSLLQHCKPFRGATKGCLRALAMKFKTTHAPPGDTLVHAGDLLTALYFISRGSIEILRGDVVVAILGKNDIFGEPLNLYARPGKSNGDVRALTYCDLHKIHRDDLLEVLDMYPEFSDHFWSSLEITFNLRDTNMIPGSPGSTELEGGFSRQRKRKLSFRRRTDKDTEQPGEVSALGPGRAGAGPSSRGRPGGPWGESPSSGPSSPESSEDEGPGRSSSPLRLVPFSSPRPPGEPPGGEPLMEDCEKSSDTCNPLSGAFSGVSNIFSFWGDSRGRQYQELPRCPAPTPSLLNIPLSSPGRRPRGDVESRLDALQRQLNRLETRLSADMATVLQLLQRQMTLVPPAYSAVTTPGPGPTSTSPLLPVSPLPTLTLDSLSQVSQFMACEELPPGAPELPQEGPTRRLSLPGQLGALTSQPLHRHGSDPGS", "assay": "Inhibition of human ERG at 30 uM", "format": "toxicity"}, "[2]": {"assay": "Metabolic stability in rat liver microsomes assessed as intrinsic clearance in presence of NADPH by LC-MS/MS analysis"}, "[3]": {"assay": "Inhibition of FIH (unknown origin)", "parameters": "species or system Homo sapiens"}}, "note": "pIC50: −log10 of the molar value."}
{"smiles": "O=C(O)CNC(=O)c1ncc(-c2cc(-c3cc(Cl)cc(Cl)c3)no2)cc1O", "values": [{"measurement": "pIC50", "setting": "Cytochrome P450 1A2", "result": "< 4.52"}, {"measurement": "pIC50", "setting": "Cytochrome P450 2C9", "result": "< 4.52"}, {"measurement": "pIC50", "setting": "Cytochrome P450 2C19", "result": "< 4.52"}, {"measurement": "pIC50", "setting": "Cytochrome P450 2D6", "result": "< 4.52"}, {"measurement": "pIC50", "setting": "Cytochrome P450 3A4", "result": "< 4.52"}, {"measurement": "inhibition (INH)", "setting": "[1]", "result": "Not_active"}]}
{"smiles": "C[C@]12CC[C@H]3[C@@H](CCC4=CC(=O)CC[C@@]43C)[C@@H]1CC[C@@H]2O", "note": "[TESTOSTERONE]", "values": [{"measurement": "microsomal CLint", "setting": "[2]", "result": 1200, "unit": "µL/min/mg"}]}
{"smiles": "O=C(O)Cc1cs/c(=N\\C(=O)C2CCN(S(=O)(=O)Cc3ccccc3)C2)n1O", "note": "(stereo not drawn)", "values": [{"measurement": "pIC50", "setting": "[3]", "result": 6.55}]}
